# Data reported in patent US11624095B2, “Method of quantifying HIV reservoirs by induced transcription based sequencing” (priority 2017, dated 2023).
# Experiments:
# [1] = system: HIV in purified CD4+ T-cells from HIV-1-infected men and women; experiment: modified EDITS assay quantifying spreading viral infection (HIV RNA+ cells after Con A stimulation); assay type: cell-based; conditions: for spreading infection / HIV RNA induction: 300 pg/ml 17β-estradiol, 9 days; for spreading infection: absence of raltegravir, women compared to men (p=0.00052); for HIV RNA induction: women compared to men (p=0.00039); for number of HIV RNA positive cells per million: CD4+ memory cells stimulated 9 days with Con A in presence of 1 μM raltegravir
# Description: It is contemplated that the quantification of the latent HIV-1 can occur before, during, and after the course of a therapeutic regimen in order to determine the efficacy of a chosen therapeutic regimen. One way to assess the efficacy of the HIV-1 therapeutic is to compare the latent HIV-1 reactivation pre and post therapeutic administration. The amount of cell associated inducible HIV env RNA measured in the sample can then be compared to a control to determine the efficacy of the antiviral and/or LRAs. The control can be the amount of cell associated inducible HIV env RNA measured in infected cells prior to the administration of the one or more antiviral and/or latency reversing agents. In order to evaluate sex differences in CD4+ T-cells from male and female subjects, methods described herein can be modified to include an additional in vitro step allowing for the quantification of spreading viral infections in the presence of candidate agents. Therefore, in optional embodiments, purified CD4+ T-cells are stimulated with an HIV transcription inducing agent in the absence or presence of an antiretroviral agent to block spreading of HIV infection and a candidate agent. The amount of newly infected cells can be determined by measuring the increase in HIV RNA+ cells in the absence of the infection blocking agent compared to cells stimulated in the presence of the infection blocking agent.
# The number of newly infected cells was determined, in accordance with the methods described herein, by measuring the HIV RNA+ cells in the absence of raltegravir after nine days. It was shown that the addition of 17β-estradiol blocked both HIV RNA induction and spreading infection in women compared to men, consistent with previous observations that the estrogen receptor-1 (ESR-1) can act as a repressor of HIV transcription.
# CD4^+ T-cells were isolated from cryopreserved PBMCs and the frequencies of cells harboring total and integrated HIV-1 DNA (tHIV and iHIV) were measured relative to CD3 copy number. Cell associated (CA) unspliced (usHIV) RNA was quantified and multiply-spliced (msRNA) was measured using the identical semi-nested PCR with different primers. Low level viremia was quantified from seven milliliters of plasma with PCR amplification targeting a conserved, untranslated HIV-1 gag RNA sequence (the HMMCgag assay). Inducible HIV-1 RNA was measured using the TILDA assay; briefly, purified CD4^+ T-cells are stimulated maximally with PMA/ionomycin, serially diluted, lysed and HIV-1 msRNA measured with a two-step RT-PCR. Maximum likelihood estimates based on the number of positive wells are used to determine the frequency of cells harboring inducible HIV-1. A modified version of the EDITS assay was used to quantify spreading viral infections. Purified CD4^+ T-cells were stimulated with the mitogen Concanavalin A (Con A) in the absence or presence of 1 μM Raltegravir (to block spreading infection) and absence or presence of 300 pg/ml 17β-estradiol. Newly infected cells were determined after nine days as the increase in HIV RNA+ cells in the absence of Raltegravir.
# As a complementary method to evaluate sex differences CD4^+ T-cells from a subset of men (n=6) and women (n=6) who underwent leukapheresis were evaluated for the level of inducible replication competent virus using a modified EDITS assay (FIG. 10). Purified CD4^+ memory cells were stimulated for 9 days to induce HIV transcription in the presence or absence of raltegravir and number of HIV RNA^+ cells was quantified by EDITS. […] In the absence of raltegravir, there were 348 RNA positive cells per million for the women and 457 RNA positive cells per million for the men, indicating spreading infection.
# [2] = system: latent HIV proviruses in memory CD4+ T-cells of HIV-1-infected subjects; experiment: EDITS assay, inducible HIV env RNA in resting memory cells after ex vivo activation; assay type: cell-based
# Description: We developed a novel deep sequencing-based protocol (EDITS, Envelope Detection by Induced Transcription-based Sequencing) to measure RNA induction, capable of detecting inducible cell-associated HIV RNA. The EDITS Assay measures inducible HIV envelope RNA in infected cells, including patient-derived samples. The HIV envelope mRNA has been chosen because the splicing pattern covers a significant portion of the proviral genome, thus minimizing readouts from defective proviruses with large deletions (FIG. 1). Briefly, 1.25×10^6 resting memory cells from aviremic (<20 copies/ml) HIV-1-infected subjects are induced by one or more latency reversing agents (LRAs) and/or by engagement of the T-cell receptor (TCR).
# FIG. 6 summarizes the protocol of the EDITS assay. Briefly, blood is collected from an HIV-infected individual and peripheral blood mononuclear cells (PBMCs) are purified. CD4^+ memory cells are negatively isolated using robotic magnetic bead isolation technology (Stemcell, 19157RF) and allowed to equilibrate in RPMI with 10% FBS, Primocin and 30 IU/ml of IL-2 overnight. 1.25 million cells are stimulated with one or more LRA (e.g., Concanavalin A) for 24 hours. […]
# Fastq files are analyzed using a proprietary pipeline (bioinformatics tool) to not only quantify the amount of HIV-1 present in any given sample but also to determine viral diversity.
# [3] = Con A stimulation, listed as estrogen
molecule,measurement,setting,value
C[C@]12CC[C@@H]3c4ccc(O)cc4CC[C@H]3[C@@H]1CC[C@@H]2O [17β-estradiol],spreading infection,[1]; Con A stimulation,potently blocked
same,spreading infection,[1]; [3],potently blocked
same,HIV RNA induction,[1]; Con A stimulation,potently blocked
same,HIV RNA induction,[1]; [3],potently blocked
same,proviral reactivation,[2]; samples activated ex vivo by TCR induction in presence and absence of Estradiol (FIG. 4),potent inhibitor of proviral reactivation
Cc1nnc(C(=O)NC(C)(C)c2nc(C(=O)NCc3ccc(F)cc3)c(O)c(=O)n2C)o1 [raltegravir],viral spread,"[1]; 1 μM raltegravir, 9 days culture, Con A stimulation",blocked
same,number of HIV RNA positive cells per million,[1]; men (n=6),80 RNA positive cells per million
same,number of HIV RNA positive cells per million,[1]; women (n=6),74 RNA positive cells per million
Concanavalin A,efficiency of activation of RNA from proviruses,"[2]; strong LRAs such as TCR activation or mitogen activation, applicant's estimate",greater than 75%
